No end group written: not given here. HA = not defined here
System: HeLa cells
Assay: MTT cell viability/growth inhibition, HeLa
Format: cell-based, human
Details: for cell viability: 10 μM, HeLa, mean of three independent experiments; for growth inhibition of EGFP-CARP-1 / EGFP-H2AX (1–35)-expressing cells: HeLa sublines vs EGFP-expressing counterparts
Protocol: Routine maintenance and culture of MDA-MB-468 (lacking estrogen receptor; ER and having mutant p53) human triple-negative breast cancer (TNBC) cells, human cervical cancer HeLa, human kidney cancer UOK 262, non-small-cell lung cancer H1975, and HCC827 cells was carried out essentially as described previously. Generation and characterization of MDA-MB-468 cells expressing reduced CARP-1 was described previously. The stable sublines were generated by transfecting the MDA-MB-468 and Hela cells with the pcDNA3 vector, pcDNA3-CARP-1 wild-type (WT)-myc-His clone 6.1.2, pcDNA3-CARP-1(Δ600–650)-myc-His, pcDNA3-EGFP, pcDNA3-EGFP-H2AX (1–35), or pcDNA3-EGFP-CARP-1 (636–650) plasmids, followed by selection in the presence of 800 μg/mL neomycin using described methods. The cell lysates from wild-type, untransfected cells, neomycin-resistant pools, or individual sublines were then subjected to MTT-based viability, confocal, immunoprecipitation (IP), and Western blot (WB) analyses as below.
The cell growth inhibition was assessed using an MTT assay following the established protocols described by us previously.
Here, we utilized human TNBC MDA-MB-468 and human cervical cancer HeLa cells to conduct an MTT-based dose-response analysis using Adriamycin and CFM compounds. […] Since Adriamycin, CFM-4, and CFM-4.16 have molecular masses of 543.3, 404.9, and 440.3, respectively, we chose to use an equimolar dose of each compound in the MTT assays. […] Prior reports established that phosphorylation of H2AX at serine 139 (γ-H2AX) is involved in DNA damage repair and apoptotic signaling by ATM/ATR and JNKs, respectively. Next, the MDA-MB-468, HeLa, and the kidney cancer UOK 262 cells were treated with a 10 μM dose of the CFM-4.16 or Adriamycin for various time periods. The cell lysates from the control, untreated, and treated cells were analyzed by WB for expression of CARP-1, phospho-JNK1/2, phospho-H2AX, and poly ADP ribose polymerase (PARP) proteins. […] The H2AX activation is also indicative of DNA damage and involves pro-apoptotic JNKs. Our data in Figure 1C and Figure S1B,C (Supplementary Materials) also show activation of JNKs; however, a robust JNK activation is co-incident with H2AX phosphorylation following treatments with Adriamycin or CFM-4.16.
Figure 8 Ectopic expression of TAT-CARP-1 (636–650) peptide results in enhanced viabilities of Adriamycin-treated cells. MDA-MB-468 (A) or HeLa (B) cells were pre-incubated with 300 μg/mL indicated peptides for 72 h, followed by treatments with the noted dose and time of Adriamycin. Determination of viable/live cells was carried out using an MTT assay as described in Section 2. The bar charts in panels A and B represent means of three and two independent experiments, respectively; bars, SE. (C) Indicated cells were either pre-incubated with 6 μg/mL indicated peptides for 72 h or not (Control), followed by treatments with Adriamycin as noted. Cells were then processed for immunofluorescence staining for TAT-CARP-1 peptide (red), γH2AX (green), and DAPI (blue) as detailed in Section 2 and Figure S3 (Supplementary Materials). Insets in C show enlarged areas of respective photomicrographs to indicate presence of TAT-CARP-1 peptide and γH2AX in respective columns. The insets in the top and middle rows of the merge column show co-localization of TAT-CARP-1 peptide, and γH2AX (magnification: 250×).
Figure S7. Disruption of H2AX interaction with CARP-1 results in enhanced viabilities of CFM-4, CFM-4.16, or Adriamycin-treated cells in part due to reduced γH2AX and apoptosis. (A,B,C) Indicated HeLa cell lines were treated with DMSO (Control), noted dose and time of Adriamycin, CFM-4, or CFM-4.16 compounds. Determination of viable/live cells was carried out by MTT assay as in methods. The columns in bar charts in panels A, B, C represent means of three independent […]
experiments; bars, SE. […]

Compound	cell viability	growth inhibition of CARP-1 (Δ600–650)-expressing cells (HeLa CARP-1 (Δ600–650) vs WT CARP-1-expressing counterparts, mean of three experiments)	growth inhibition of EGFP-CARP-1 / EGFP-H2AX (1–35)-expressing cells (mean of three experiments)	viability of Adriamycin-treated cells (HeLa pre-incubated with 300 μg/mL peptide, 72 h, then Adriamycin, vs EGFP, mean of two experiments)
COc1cccc2c1C(=O)c1c(O)c3c(c(O)c1C2=O)C[C@@](O)(C(=O)CO)C[C@@H]3O[C@H]1C[C@H](N)[C@H](O)[C@H](C)O1 [Adriamycin, doxorubicin, reference compound]	inhibited viabilities of both the cell lines in a time-dependent manner	resistant to inhibition by CFM-4 or ADR	resistant to inhibition by CFM-4.16 or ADR	–
O=C1N(Cc2ccccc2Cl)c2ccccc2C12NN=C(c1cccc(Cl)c1)S2 (centres unmarked) [CFM-4.16]	inhibited viabilities of both the cell lines in a time-dependent manner	–	resistant to inhibition by CFM-4.16 or ADR	–
EGFP-CARP-1 (636–650): EGFP-tagged fusion protein stably expressed in MDA-MB-468 and HeLa sublines (PKTMKVNDLRKELES; also: EGFP fusion kept, end not given here)	–	–	resistant to inhibition by CFM-4.16 or ADR	–
EGFP-H2AX (1–35): EGFP-tagged fusion protein stably expressed in MDA-MB-468 and HeLa sublines (MSGRGKTGGKARAKAKSRSSRAGLQFPVGRVHRLL; also: EGFP fusion, end not given here; UniProt P16104 1-35, looked up, fragment)	–	–	resistant to inhibition by CFM-4.16 or ADR	–
His-TAT-HA-CARP-1 (636–650): His-TAT-HA-tagged CARP-1 (636–650) peptide, >95% purity, commercially synthesized ({His-TAT-HA}-PKTMKVNDLRKELES; reading uncertain; UniProt Q8IX12 636-650, looked up, fragment)	–	–	–	moderate, statistically significant increase in viabilities
